This is an account of results in US12655145B2, “P2X3 modulators” (GlaxoSmithKline Intellectual Property (No. 3) Limited, priority 2020, dated 2026).

Molecules are shown by their SMILES. Where two headings read alike, the source gives them in different places.

In the assay the target is T1, P2X3 (Homo sapiens, UniProt P56373).
T1 construct: expressed in transfected cells; host or cells: HEK293
T1 sequence (P56373 1-397): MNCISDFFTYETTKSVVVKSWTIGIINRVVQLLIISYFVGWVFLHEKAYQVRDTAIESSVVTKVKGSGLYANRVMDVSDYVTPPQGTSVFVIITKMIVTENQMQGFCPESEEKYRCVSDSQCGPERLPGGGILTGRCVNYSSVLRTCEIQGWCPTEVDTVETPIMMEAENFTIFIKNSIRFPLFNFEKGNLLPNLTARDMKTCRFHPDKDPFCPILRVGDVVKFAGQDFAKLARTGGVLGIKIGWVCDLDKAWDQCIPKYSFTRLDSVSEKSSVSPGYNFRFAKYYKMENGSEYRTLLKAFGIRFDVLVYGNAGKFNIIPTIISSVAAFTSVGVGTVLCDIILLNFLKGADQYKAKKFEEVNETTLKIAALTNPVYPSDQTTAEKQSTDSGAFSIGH
Kind of assay: P2X3 Antagonist Assay (FLIPR calcium, Fluo-8, HEK293 cells transfected with human ion channel cDNAs, αβ-meATP stimulation). In kind it is cell-based. Conditions: antagonist mode, αβ-meATP 3 μM; for inhibition at 1 µM: read-out: P2X3 IC50 column, given as % @ 1 μM. The protocol:
Example 59: P2X3 Antagonist Assay
HEK293 were transiently or stably transfected with human ion channel cDNAs as indicated in section 1. Stable transfectants were selected by coexpression with the antibiotic-resistance gene(s) incorporated into the expression plasmid(s). Selection pressure was maintained by including selection antibiotics in the culture medium. HEK293 cells were cultured in Dulbecco's Modified Eagle Medium/Nutrient Mixture F-12 (D-MEM/F-12) supplemented with 10% fetal bovine serum, 100 U/mL penicillin G sodium, 100 J·Lg/mL streptomycin sulfate and appropriate selection antibiotics.
The effect of each test article to act as an antagonist was evaluated. Each test article was evaluated at eight (8) concentrations (0.001, 0.003, 0.01, 0.03, 0.1, 0.3, 1 and 3 μM, n=3) with 4 replicates for each concentration. Experiments were performed with the FLIPR calcium sensitive dye kit (Fluo-8 dye, AAT, Bioquest) according to the manufacturer's instructions. • Dye-loading: Growth media will be removed and add 20 μL of Mg^++-free HBPS containing Fluo-8 for 30 min at 37° C. • Preincubation (FLIPR step 1): Adding 5× (5 μL) test, vehicle, or control article solutions in Mg^+-free HBPS to each well for 20 minutes at room temperature, protected from light. • Stimulation (FLIPR step 2): After pre-incubation, cells will be stimulated with 6× (5 μL) αβ-meATP at final concentration of 3 μM prepared in Mg^++-free HBPS. • Non-Specific Calcium Influx (FLIPR step 3): 5 minutes after stimulation solution addition, non-specific calcium influx will be activated by adding 7×(5 μL) ionomycin at a final concentration of 5 μM. Fluorescence will be recorded continuously during FLIPR steps 2 and 3. • Positive Control Antagonist: PPADS (1 mM).
Data acquisition was performed via the FLIPRControl software that is supplied with the FLIPR System (MDS-AT) and data was analyzed using Microsoft Excel2003 (Microsoft Corp., Redmond, WA).

As usually defined, the IC50 is the concentration at which inhibition is half-maximal.

In the case of `CNC(=O)c1cc(F)c(-c2nc3cc(C)ccn3c2CC2CN(C(=O)OC)CCCO2)c(F)c1` (single isomer, unassigned) [A14 (Peak 1), methyl 2-((2-(2,6-difluoro-4-(methylcarbamoyl)phenyl)-7-methylimidazo[1,2-a]pyridin-3-yl)methyl)-1,4-oxazepane-4-carboxylate], the inhibition at 1 µM (HEK293, @ 1 μM) was determined as 39%.

`CNC(=O)c1cc(F)c(-c2nc3cc(C)ccn3c2CC2CN(C(=O)OC)CCCO2)c(F)c1` (single isomer, unassigned) [A14 (Peak 2), methyl 2-((2-(2,6-difluoro-4-(methylcarbamoyl)phenyl)-7-methylimidazo[1,2-a]pyridin-3-yl)methyl)-1,4-oxazepane-4-carboxylate]: the IC50 was less than 100 nM.

With `CNC(=O)c1cc(F)c(-c2nc3cc(C)ccn3c2CC2COCCN(C(=O)OC)C2)c(F)c1` (single isomer, unassigned) [A16 (Peak 1), methyl 6-((2-(2,6-difluoro-4-(methylcarbamoyl)phenyl)-7-meth-ylimidazo[1,2-a]pyridin-3-yl)methyl)-1,4-oxazepane-4-carboxylate], the inhibition at 1 µM (HEK293, @ 1 μM) was determined as 29%.

Regarding `CNC(=O)c1cc(F)c(-c2nc3cc(C)ccn3c2CC2COCCN(C(=O)OC)C2)c(F)c1` (single isomer, unassigned) [A16 (Peak 2), methyl 6-((2-(2,6-difluoro-4-(methylcarbamoyl)phenyl)-7-meth-ylimidazo[1,2-a]pyridin-3-yl)methyl)-1,4-oxazepane-4-carboxylate], under “@ 1 μM”, the “P2X3 IC50 column, given as % @ 1 μM” value is 23% @ 1 μM.

Turning to `CNC(=O)c1cc(F)c(-c2nc3cc(C)ccn3c2CC2CCCCN(C(=O)OC)C2)c(F)c1` (single isomer, unassigned) [A17 (Peak 1), methyl 3-((2-(2,6-difluoro-4-(methylcarbamoyl)phenyl)-7-methylimidazo[1,2-a]pyridin-3-yl)methyl)azepane-1-carboxylate], the inhibition at 1 µM (HEK293, @ 1 μM) came to 30%.

Consider `CNC(=O)c1cc(F)c(-c2nc3cc(C)ccn3c2CC2CCCCN(C(=O)OC)C2)c(F)c1` (single isomer, unassigned) [A17 (Peak 2), methyl 3-((2-(2,6-difluoro-4-(methylcarbamoyl)phenyl)-7-methylimidazo[1,2-a]pyridin-3-yl)methyl)azepane-1-carboxylate], for which the “P2X3 IC50 column, given as % @ 1 μM” value (@ 1 μM) stood at 21% @ 1 μM.

Turning to `CNC(=O)c1cc(F)c(-c2nc3cc(C)ccn3c2CC2CCCN(C(=O)OC)CC2)c(F)c1` (single isomer, unassigned) [A18 (Peak 1), methyl 4-((2-(2,6-difluoro-4-(methylcarbamoyl)phenyl)-7-methylimidazo[1,2-a]pyridin-3-yl)methyl)azepane-1-carboxylate], the concentration for half-maximal inhibition (IC50) is less than 100 nM.

For the compound `CNC(=O)c1cc(F)c(-c2nc3cc(C)ccn3c2CC2CCCN(C(=O)OC)CC2)c(F)c1` (single isomer, unassigned) [A18 (Peak 2), methyl 4-((2-(2,6-difluoro-4-(methylcarbamoyl)phenyl)-7-methylimidazo[1,2-a]pyridin-3-yl)methyl)azepane-1-carboxylate], the IC50 fell in the range of 100 to 1000 nM.

As to `CNC(=O)c1ccc(-c2nc3cc(C(O)C(F)(F)F)ccn3c2C[C@H]2CN(C(=O)OC)CCO2)c(F)c1` (single isomer, unassigned) [A46 (Peak 1)], the IC50 is greater than 1000 nM.

For the compound `CNC(=O)c1ccc(-c2nc3cc(C(O)C(F)(F)F)ccn3c2C[C@H]2CN(C(=O)OC)CCO2)c(F)c1` (single isomer, unassigned) [A46 (Peak 2)], the IC50 was greater than 1000 nM.

Take `CNC(=O)c1ccc(-c2nc3cc([S+](C)[O-])ccn3c2C[C@H]2CN(C(=O)OC)CCO2)c(F)c1` (single isomer, unassigned) [A47 (Peak 1)]: the inhibition at 1 µM (@ 1 μM) came to 5%.

Turning to `CNC(=O)c1ccc(-c2nc3cc([S+](C)[O-])ccn3c2C[C@H]2CN(C(=O)OC)CCO2)c(F)c1` (single isomer, unassigned) [A47 (Peak 2)], the IC50 is greater than 1000 nM.

In the case of `CNC(=O)c1cc(F)c(-c2nc3cc(C)ccn3c2CC2CCCC(NC(C)=O)C2)c(F)c1` (single isomer, unassigned) [cis-A22 (Peak 1), 4-(3-((3-acetamidocyclohexyl)methyl)-7-methylimidazo[1,2-a]pyridin-2-yl)-3,5-difluoro-N-methylbenzamide], the IC50 was less than 100 nM.

Regarding `CNC(=O)c1cc(F)c(-c2nc3cc(C)ccn3c2CC2CCCC(NC(C)=O)C2)c(F)c1` (single isomer, unassigned) [cis-A22 (Peak 2), 4-(3-((3-acetamidocyclohexyl)methyl)-7-methylimidazo[1,2-a]pyridin-2-yl)-3,5-difluoro-N-methylbenzamide], the IC50 is less than 100 nM.

With `CNC(=O)c1cc(F)c(-c2nc3cc(C)ccn3c2CC2CCCC(NC(C)=O)C2)c(F)c1` (single isomer, unassigned) [trans-A22 (Peak 1), 4-(3-((3-acetamidocyclohexyl)methyl)-7-methylimidazo[1,2-a]pyridin-2-yl)-3,5-difluoro-N-methylbenzamide], under “HEK293, @ 1 μM”, the inhibition at 1 µM is 22%.

Regarding `CNC(=O)c1cc(F)c(-c2nc3cc(C)ccn3c2CC2CCCC(NC(C)=O)C2)c(F)c1` (single isomer, unassigned) [trans-A22 (Peak 2), 4-(3-((3-acetamidocyclohexyl)methyl)-7-methylimidazo[1,2-a]pyridin-2-yl)-3,5-difluoro-N-methylbenzamide], the “P2X3 IC50 column, given as % @ 1 μM” value (@ 1 μM) is 17% @ 1 μM.

Take `CNC(=O)c1cc(F)c(-c2nc3cc(C)ccn3c2C[C@H]2CCCN(C(=O)OC)C2)c(F)c1` [(R)-A19, methyl (R)-3-((2-(2,6-difluoro-4-(methylcarbamoyl)phenyl)-7-methylimidazo[1,2-a]pyridin-3-yl)methyl)piperidine-1-carboxylate]: the IC50 was less than 100 nM.

Turning to `CNC(=O)c1cc(F)c(-c2nc3cc(C)ccn3c2C[C@@H]2CCCN(C(=O)OC)C2)c(F)c1` [(S)-A19, methyl (S)-3-((2-(2,6-difluoro-4-(methylcarbamoyl)phenyl)-7-methylimidazo[1,2-a]pyridin-3-yl)methyl)piperidine-1-carboxylate], the IC50 was less than 100 nM.

On to `CNC(=O)c1cc(F)c(-c2nc3cc(F)ccn3c2C[C@H]2CN(C(=O)OC)CCO2)c(F)c1` [Compound A1, methyl (S)-2-((2-(2,6-difluoro-4-(methylcarbamoyl)phenyl)-7-fluoroimidazo[1,2-a]pyridin-3-yl)methyl)morpholine-4-carboxylate], for which the IC50 lay within 100 to 1000 nM.

Turning to `CNC(=O)c1cc(F)c(-c2nc3cc(Cl)ccn3c2C[C@H]2CN(C(=O)OC)CCO2)c(F)c1` [Compound A2, methyl (S)-2-((7-chloro-2-(2,6-difluoro-4-(methyl-carb-amoyl)-phenyl)-imidazo[1,2-a]pyridin-3-yl)methyl)morpholine-4-carboxylate], the IC50 is less than 100 nM.

For the compound `CNC(=O)c1cc(F)c(-c2nc3cc(OC)ccn3c2C[C@H]2CN(C(=O)OC)CCO2)c(F)c1` [Compound A3, methyl (S)-2-((2-(2,6-difluoro-4-(methylcarbamoyl)phenyl)-7-methoxyimidazo[1,2-a]pyridin-3-yl)methyl)morpholine-4-carboxylate], the IC50 was less than 100 nM.

As to `CNC(=O)c1cc(F)c(-c2nc3cc(C(F)F)ccn3c2C[C@H]2CN(C(=O)OC)CCO2)c(F)c1` [Compound A4, methyl (S)-2-((2-(2,6-difluoro-4-(methylcarbamoyl)phenyl)-7-(di-fluoromethyl)imidazo[1,2-a]pyridin-3-yl)methyl)morpholine-4-carboxylate], the IC50 is less than 100 nM.

For `CNC(=O)c1cc(F)c(-c2nc3cc(C(F)(F)F)ccn3c2C[C@H]2CN(C(=O)OC)CCO2)c(F)c1` [Compound A5, methyl (S)-2-((2-(2,6-difluoro-4-(methylcarbamoyl)phenyl)-7-(trifluoromethyl)imidazo[1,2-a]pyridin-3-yl)methyl)morpholine-4-carboxylate], the IC50 lay within 100 to 1000 nM.
